# Assay results: US11926614B2, “1,2,4-triazole derivatives as tankyrase inhibitors” (priority 2018, dated 2024)
# Like-named read-outs stand apart in the source and are kept apart here.
# What was measured:
# HEK293 = assay: Cellular IC50 HEK293; type: cell-based
# Excerpt: (§1) XLfit (idbs) was used to determine the IC50-values in inhibition experiments. The following formula was chosen to fit the data points (Langmuir Binding Isotherm): fit=((A+(B*x))+4(C−B)*(1−exp((−1*D)*x)))/D)), res=(y−fit)
# TNKS2 = TNKS2 (Homo sapiens (Human), UniProt Q9H2K2); assay: Biochemical IC50 TNKS2; conditions: read-out: Biochemical IC50 TNKS2
# TNKS2, sequence (Q9H2K2 whole entry): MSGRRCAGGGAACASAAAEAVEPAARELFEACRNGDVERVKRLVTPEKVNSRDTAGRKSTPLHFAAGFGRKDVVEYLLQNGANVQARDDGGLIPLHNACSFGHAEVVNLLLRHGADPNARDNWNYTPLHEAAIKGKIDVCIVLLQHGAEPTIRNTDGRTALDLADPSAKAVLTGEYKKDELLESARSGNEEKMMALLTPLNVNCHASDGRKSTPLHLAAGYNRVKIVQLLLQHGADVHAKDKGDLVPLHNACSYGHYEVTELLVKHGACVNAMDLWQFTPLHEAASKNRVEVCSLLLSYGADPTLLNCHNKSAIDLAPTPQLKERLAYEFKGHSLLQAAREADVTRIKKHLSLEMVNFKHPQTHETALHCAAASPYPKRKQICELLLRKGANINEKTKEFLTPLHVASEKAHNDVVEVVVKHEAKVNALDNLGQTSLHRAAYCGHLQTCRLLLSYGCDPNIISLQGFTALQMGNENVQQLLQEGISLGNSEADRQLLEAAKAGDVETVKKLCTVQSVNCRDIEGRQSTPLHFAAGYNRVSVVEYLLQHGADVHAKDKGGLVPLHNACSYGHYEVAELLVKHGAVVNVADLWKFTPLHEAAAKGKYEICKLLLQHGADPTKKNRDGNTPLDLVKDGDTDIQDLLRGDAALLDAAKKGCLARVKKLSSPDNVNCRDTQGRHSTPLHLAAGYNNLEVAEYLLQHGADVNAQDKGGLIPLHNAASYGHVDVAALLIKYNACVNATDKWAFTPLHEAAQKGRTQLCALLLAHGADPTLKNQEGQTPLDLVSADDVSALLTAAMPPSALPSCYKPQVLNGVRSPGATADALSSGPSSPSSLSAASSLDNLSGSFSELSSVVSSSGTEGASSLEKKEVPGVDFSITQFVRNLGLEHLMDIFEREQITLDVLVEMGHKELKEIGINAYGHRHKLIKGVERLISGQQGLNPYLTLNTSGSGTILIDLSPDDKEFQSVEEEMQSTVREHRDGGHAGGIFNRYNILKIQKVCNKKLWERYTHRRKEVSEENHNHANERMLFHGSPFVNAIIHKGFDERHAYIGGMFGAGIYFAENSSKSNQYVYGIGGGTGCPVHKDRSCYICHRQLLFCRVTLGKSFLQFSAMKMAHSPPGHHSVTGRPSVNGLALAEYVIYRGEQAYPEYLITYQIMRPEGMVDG
# Excerpt: as §1
# [1] = Homo sapiens, HEK293, HEK293; read-out: Cellular IC50 HEK293
SMILES,"IC50 (HEK293; Homo sapiens, HEK293; read-out: Cellular IC50 HEK293)",IC50 (TNKS2),IC50 (HEK293; [1]),"IC50 (HEK293; Homo sapiens, HEK293, read-out: Cellular IC50 HEK293)"
"O=C(N[C@H]1C[C@H](c2nnc(-c3ccccn3)n2-c2ccccc2F)C1)c1ccnc2cc(F)cnc12 [Example 191, 7-fluoro-N-((1S,3r)-3-(4-(2-fluorophenyl)-5-(pyridin-2-yl)-4H-1,2,4-triazol-3-yl)cyclobutyl)-1,5-naphthyridine-4-carboxamide]",3.4 nM,1.8 nM,–,–
"Cc1ccc(-n2c(-c3nccs3)nnc2[C@H]2C[C@H](NC(=O)c3ccnc4cccnc34)C2)s1 [Example 89, N-((1r,3r)-3-(4-(5-methylthiophen-2-yl)-5-(thiazol-2-yl)-4H-1,2,4-triazol-3-yl)cyclobutyl)-1,5-naphthyridine-4-carboxamide]",–,2.7 nM,2.4 nM,–
"CCOc1ccc(-c2nnc([C@H]3C[C@H](NC(=O)c4ccnc5cccnc45)C3)n2-c2ccncc2)nc1 [Example 168, N-((1r,3r)-3-(5-(5-ethoxypyridin-2-yl)-4-(pyridin-4-yl)-4H-1,2,4-triazol-3-yl)cyclobutyl)-1,5-naphthyridine-4-carboxamide]",–,5.4 nM,–,13 nM
"CCOc1ccc(-c2nnc([C@H]3C[C@H](NC(=O)c4ccccc4)C3)n2-c2ccccc2Cl)nc1 [Example 136, N-((1S,3r)-3-(4-(2-chlorophenyl)-5-(5-ethoxypyridin-2-yl)-4H-1,2,4-triazol-3-yl)cyclobutyl)benzamide]",–,6.6 nM,16 nM,–
"CCOc1ccc(-c2nnc([C@H]3C[C@H](NC(=O)c4cc5sc(C)cc5[nH]4)C3)n2-c2ccccc2F)nc1 [Example 150, N-((1S,3r)-3-(5-(5-ethoxypyridin-2-yl)-4-(2-fluorophenyl)-4H-1,2,4-triazol-3-yl)cyclobutyl)-2-methyl-4H-thieno[3,2-b]pyrrole-5-carboxamide]",–,9.5 nM,16 nM,–
